Data reported in PMC10305181, “A VEGFB-Based Peptidomimetic Inhibits VEGFR2-Mediated PI3K/Akt/mTOR and PLCγ/ERK Signaling and Elicits Apoptotic, Antiangiogenic, and Antitumor Activities” (Pharmaceuticals, 2023).
Bridge positions count the residues as written; N and C are the ends. Peptide text beside a SMILES is read from it.

Experiments:
[1] = test system: HUVECs; experiment: tube formation assay on Matrigel, HUVECs; type: cell-based, human; settings: 0.40 μM; 12 h; VEGF 20 ng·mL^−1; n = 3; p < 0.001
Procedure: Figure 4 Inhibition of EC proliferation and tubulogenesis by C-VGB3 through abrogation of VEGFR2-mediated signaling pathways. (A) MTT assay was performed to investigate C-VGB3 effect on the proliferation of ECs. C-VGB3 (0–0.91 μM) was used with (20 ng·mL^−1) or without VEGF. The control cells were treated with no peptide. After 24 and 48 h, the absorbance was measured at 570 nm utilizing an ELISA plate reader (Space Fax 2100, Awareness, Westport, CT, USA). Error bars indicate ± SEM. n = 3; * p = 0.02, ** p = 0.001, *** and ### p = 0.0001, **** and #### p < 0.0001, ns = not significant; one-way ANOVA. (B) The anti-tubulogenesis effect of C-VGB3 in VEGF (20 ng·mL^−1)-induced HUVECs. Image analysis performed by Wimasis image analysis software is illustrated in the bottom panel. Error bars indicate ±SEM. n = 3; *** 0.0004 ≤ p ≤ 0.0001; unpaired Student’s t-test. To evaluate the mechanism by which C-VGB3 diminished cell proliferation and tube formation, Western blot analysis was performed for HUVECs. […] Error bars indicate ± SEM. n = 3; * p = 0.02, ** p = 0.001, *** p = 0.0001, **** p < 0.0001; one-way ANOVA. […] Error bars indicate ± SEM. n = 3; * p = 0.02, ** p = 0.001, **** p < 0.0001; one-way ANOVA.
Tube formation of HUVECs was assayed on the Matrigel. After pre-labeling with PKH26 cell tracker (Sigma-Aldrich, St. Louis, MO, USA) HUVECs were plated into 24-well plates pre-coated with Matrigel Basement Membrane Matrix (BD Biosciences, San Jose, CA, USA). C-VGB3 (0.40 μM) was added to the medium, and images were manually captured after 12 h using an Olympus BX-51 fluorescence microscope. Quantitative analyses were performed by Wimasis online software.

[2] = test system: Ki67-positive cells; experiment: Ki67 immunohistochemistry of 4T1 tumors (proliferation); type: in vivo, murine; settings: 0.2 mg·kg^−1 i.v.; n = 3; p = 0.04 vs control
Procedure: Figure 2 Loop formation is important for the antitumor activity of VGB3. (A) To investigate the efficacy of VGB3 peptides in vivo 13 days after transplantation of a 4T1 murine MCT into female BALB/c mice (the tumor volume ~150 mm^3), the treatment groups received 0.2 mg·kg^−1 (once every 2 days, i.v.) of either the C-VGB3 or L-VGB3 and the control group received PBS for 20 days. Error bars denote ± SEM. n = 6; **** p < 0.0001, ns = not significant; two-way ANOVA. (B) Investigation of C-VGB3 and L-VGB3 effects on mice weight. […] (C,D) Immunohistochemical (IHC) analyses of CD31 and Ki67 for the C-VGB3-, L-VGB3- and PBS-treated tumors. For IHC staining, the sections of tumor tissues were incubated with the primary mouse monoclonal antibodies for CD31 (1:2000 (v/v)) and Ki67 (5 µg·mL^−1). […] Photographs were taken at 40× magnification. Error bars denote ± SEM. n = 3; * 0.02 ≤ p ≤ 0.04, ns = not significant; one-way ANOVA.
For immunohistochemistry staining, deparaffinized tumor sections were incubated overnight at 4 °C with mouse monoclonal primary anti-Ki67 (5 µg·mL^−1) or anti-CD31 (1:2000 (v/v)). The antigens were detected using 3,3-diaminobenzidine. All images were captured and analyzed with an Olympus BX51 microscope (Olympus America, New York, NY, USA).

CC(C)C[C@@H]1NC(=O)CNC(=O)[C@H](CC(=O)O)NC(=O)[C@H](CC(=O)O)NC(=O)[C@@H]2CCCN2C(=O)[C@@H]2CCCN2C(=O)[C@H](CCCNC(=N)N)NC(=O)[C@@H](NC(=O)[C@@H](N)CCC(=O)O)CSSC[C@@H](C(=O)O)NC1=O [C-VGB3] (H-ECRPPDDGLC-OH; disulfide 2-10)
decrease in tube branching points [1]: 81.46%
decrease in tube length [1]: 44.37%
decrease in tube numbers [1]: 58.64%
decrease in Ki67-positive cells [2]: 60%
